US5674837A, “Stable bleomycin sulfate solution suitable for injection” (Abbott Laboratories, priority 1994, dated 1997)
Where two headings read alike, the source gives them in different places.

How the values were obtained:
[1] = system: Mycobacterium smegmatis; assay: Storage stability of bleomycin sulfate solutions, potency by microbial agar diffusion assay; type: physicochemical; set-up: first-order degradation rate constant k: unit not given here; conditions: for % of Initial Drug Remaining (Potency): 3 U/mL in SWFI, RT
Procedure: As used herein, "stable" or "stabilizing" refers to the retention of potency of a bleomycin solution in the range of about 90-120% of its initial starting potency. Potency refers to the amount of antimicrobial activity of the bleomycin solution as determined by microbial assay and is expressed in units of activity. One unit of bleomycin is equivalent in activity to 1 mg of bleomycin A2 reference standard. A2 reference standards are well known to those of ordinary skill in the art and may be purchased from a variety of commercial suppliers. […] The assay is performed as follows:
ii. Plates for potency assay: The number of plates required per assay is dependent on the number of samples to be tested. For all tests, at least 12 plates are required to establish a standard response line (see "Standard Response Line Solutions" below) and at least 3 plates are required to determine the potency of each test sample. Plates for potency testing are prepared by evenly distributing a 10 mL base layer of melted Medium 35 to an appropriate number of plastic or glass Petri dishes (20 by 100 millimeters). The layer of base agar medium is poured into each plate on a flat level surface, and a cover placed on each plate in turn; if a nonporous cover is used, the cover is left slightly ajar to prevent accumulation of condensing moisture from the hot agar base layer. After the agar hardens, the nonporous cover is seated on each plate. To prepare the seed layer, an amount of test organism suspension (see "Test Organism Suspension" below) is added to a sufficient amount of Medium 35 (which has been melted and cooled to 48° C.-50° C.) to equal a ratio of 1 mL suspension for each 100 mL of medium. The flask is swirled to obtain a homogeneous suspension, and 6 mL of suspension then added to each of the plates containing the uninoculated base agar. The seed layer is spread evenly over the agar surface, covered and allowed to harden on a flat, level surface. After the agar has hardened, 6 cylinders (stainless steel with an outside diameter of 8 millimeters (±0.1 millimeter), an inside diameter of 6 millimeters (±0.1 millimeter), and a length of 10 millimeters (±0.1 millimeter)) are placed on the inoculated agar surface so that they are at approximately 60° intervals on a 2.8 centimeter radius.
c. Test Organism Suspension: Test organism, Mycobacterium smegmatis (Cat. #607 from the American Type Culture Collection, 12301 Parklawn Dr., Rockville, Md. 20852 ) is maintained on agar slants containing 10 mL of Medium 36 as described above and transferred to a fresh slant about once a week. Slants are Incubated at 37° C. for 48 hours immediately after transfer. To prepare the test organism suspension, 3 mL of sterile USP saline T.S., is used to wash the growth from the agar slant into a 500-mL Edenmeyer flask containing 100 mL of Medium 34 and 50 gm of glass beads. The culture is agitated by rotation at a speed of 130 cycles per minute and a radius of 3.5 centimeters at 37° C. for 5 days. The test organism suspension is stored under refrigeration for a period of up to 2 weeks.
ii. Working Standard Stock Solution: The working standard of bleomycin is prepared as follows: In an atmosphere of about 10 percent relative humidity, about 100 milligrams of a fine powder of the drug is transferred to a tared weighing bottle equipped with a ground-glass stopper. The bottle is weighed and placed in a vacuum oven, with the stopper tilted on its side so that there is no closure during the drying period. The drug is dried at a temperature of 25° C. and a pressure of 5 millimeters of mercury or less for 4 hours. At the end of the drying period, the vacuum oven is filled with air that has been dried by passing it through a drying agent such as sulfuric acid or silica gel. The stopper is replaced and the weighing bottle placed in a desiccator over a desiccating agent, such as phosphorous pentoxide or silica gel, allowed to cool to room temperature, and reweighed.

[2] = cited from earlier work
[3] = 0.1M citrate buffer, 5° C., 3 mo.
[4] = 0.1M citrate buffer, 25° C., 2 mo.
[5] = 0.1M citrate buffer, 25° C., 3 mo.
[6] = 0.1M citrate buffer, 40° C., 1 mo.
[7] = 0.1M citrate buffer, 40° C., 2 mo.
[8] = 0.1M citrate buffer, 40° C., 3 mo.

Substance: bleomycin
- shelf-life t90% (time required to reach 90% of the initial potency) ([1]; solution in SWFI at RT, estimated from k): ~3.44 months
- first-order degradation rate constant k ([1]; solution in SWFI at RT, from 24 month data): ~0.03058
- time stable, reconstituted solutions ([2]; 2° C.-8° C.): 4 weeks
- stability in ointment base ([2]; in dermabase or tincture of benzoin): quite unstable
- loss of activity ([2]; in petrolatum ointment base, in two years): 7%
- time stable in solution ([2]; in saline (Dorr et al.)): up to seven
- claimed stability time ([2]; multidose premix in sodium chloride, under refrigeration): 100 days
- time stable, reconstituted solutions ([2]; room temperature): 2 weeks

Substance: bleomycin sulfate
- % Potency Remaining [1, 3]: 107.3%
- Potency [1, 3]: 16.51 units per vial
- % Potency Remaining [1, 4]: 104.1%
- Potency [1, 4]: 16.02 units per vial
- % Potency Remaining [1, 5]: 95.2%
- Potency [1, 5]: 14.65 units per vial
- % Potency Remaining [1, 6]: 87.1%
- Potency [1, 6]: 13.40 units per vial
- % Potency Remaining [1, 7]: 83.1%
- Potency [1, 7]: 12.79 units per vial
- % Potency Remaining [1, 8]: 59.3%
- Potency [1, 8]: 9.13 units per vial
- starting concentration (initial potency) ([1]; 0.1M citrate buffer): 15.39 units per vial
- % of Initial Drug Remaining (Potency) ([1]; 0 months): 100.0%
- % of Initial Drug Remaining (Potency) ([1]; 24 months): 48.0%
- % Potency Remaining ([1]; SWFI, 5° C., 3 mo.): 105.0%
- Potency ([1]; SWFI, 5° C., 3 mo.): 16.37 units per vial
- % Potency Remaining ([1]; SWFI, 25° C., 2 mo.): 105.1%
- Potency ([1]; SWFI, 25° C., 2 mo.): 16.38 units per vial
- % Potency Remaining ([1]; SWFI, 25° C., 3 mo.): 101.5%
- Potency ([1]; SWFI, 25° C., 3 mo.): 15.82 units per vial
- % Potency Remaining ([1]; SWFI, 40° C., 1 mo.): 96.1%
- Potency ([1]; SWFI, 40° C., 1 mo.): 14.97 units per vial
- % Potency Remaining ([1]; SWFI, 40° C., 2 mo.): 97.7%
- Potency ([1]; SWFI, 40° C., 2 mo.): 15.22 units per vial
- % Potency Remaining ([1]; SWFI, 40° C., 3 mo.): 63.4%
- Potency ([1]; SWFI, 40° C., 3 mo.): 9.88 units per vial
- starting concentration (initial potency) ([1]; SWFI): 15.58 units per vial
- decrease of potency ([1]; citrate buffer solution, 3 months storage at 40° C.): ~40%
- decrease in stability ([1]; citrate solutions, 25° C. and 5° C., 3 months storage): little if any, decrease in stability
